# Data as given in patent US20220338473A1, “USE OF BENZYL ALCOHOL AS A HERBICIDE” (INNOVI, priority 2019, published 2022).
# Assays:
# Format in all cases: in vivo
# Bindweed = test: Preventative herbicide activity by sprinkling of the soil; design: key to Plants sprouted despite the preventative treatment: yes: the areas where the plants have sprouted despite the preventative treatment; no: the areas where the preventative treatment made it possible to prevent the sprouting of the identified plants; settings: for Plants sprouted despite the preventative treatment: soil sprinkling
# Method: (§1) Areas identified as each year showing the presence of couch grass, grass, bindweeds and thistles were treated preventatively. […] The results are reported in Table 6 below, in which the note “yes” indicates the areas where the plants have sprouted despite the preventative treatment, and the note “no” indicates the areas where the preventative treatment made it possible to prevent the sprouting of the identified plants.
# Grass = test: as above; design: key to Plants sprouted despite the preventative treatment: yes: the areas where the plants have sprouted despite the preventative treatment; no: the areas where the preventative treatment made it possible to prevent the sprouting of the identified plants; settings: for Plants sprouted despite the preventative treatment: soil sprinkling
# Method: as §1
# Couch grass = test: as above; design: key to Plants sprouted despite the preventative treatment: yes: the areas where the plants have sprouted despite the preventative treatment; no: the areas where the preventative treatment made it possible to prevent the sprouting of the identified plants; settings: for Plants sprouted despite the preventative treatment: soil sprinkling
# Method: as §1
# Thistle = test: as above; design: key to Plants sprouted despite the preventative treatment: yes: the areas where the plants have sprouted despite the preventative treatment; no: the areas where the preventative treatment made it possible to prevent the sprouting of the identified plants; settings: for Plants sprouted despite the preventative treatment: soil sprinkling
# Method: as §1
# Clover = test: Non-selective activity on herbaceous plants (spraying, potted); settings: 4 g benzyl alcohol (200 L/Ha) in 8 g total (400 L/Ha)
# Method: (§2) The non-selective character of benzyl alcohol was studied on 3 common varieties of herbaceous plants, two dicotyledons (dandelions and clover) and a monocotyledon (grass).
# (§3) The assays were carried out on potted plants. The application of the product is carried out with a trigger spray bottle which makes it possible to spray 1 g of product per spraying, as microdroplets.
# (§4) The treated plants are sprinkled with different quantities of water comprising different quantities of pure benzyl alcohol (PanReac AppliChem—ITW Reagents). The untreated (control) plants are sprinkled with the same total quantity of water only.
# (§5) The plants are observed at the following times: T0, 6 h, 24 h, 48 h, 72 h, 96 h. The collapsing of the plant, the colour intensity and the diameter of the plant were measured as indicated in Example 1.
# Dandelion = test: as above; settings: 4 g benzyl alcohol (200 L/Ha) in 8 g total (400 L/Ha)
# Method: as §2, §3, §4, §5
# Soybean seeds = test: Preventative activity (anti-germination), seeds on agar in Petri dish; settings: 0.35 g sprayed (benzyl alcohol pure, 700 L/Ha; glyphosate diluted at 0.5%)
# Method: (§6) The assays were carried out on seeds sown on a Petri dish with respectively a control mode, an assay with benzyl alcohol and an assay with glyphosate herbicide (Gallup® super 360, Barclay).
# (§7) The application of the product is carried out with a trigger spray bottle which makes it possible to spray 0.35 g of product per spraying, as microdroplets.
# (§8) Seeds are placed on an agar gel in Petri dishes. 16 barley seeds, 24 rapeseed seeds, 18 wheat seeds, 10 maize seeds, 10 soybean seeds are positioned for each test.
# (§9) The seeds are sprinkled either with 0.35 g water (equivalent 700 L/Ha) including 0.35 g pure benzyl alcohol (PanReac AppliChem—ITW Reagents) (equivalent 700 L/Ha pure benzyl alcohol), or with 0.35 g water for the control, or with 0.35 g glyphosate diluted at 0.5% for the glyphosate test.
# (§10) The plants are observed at 0 and 11 days. The percentage of germination is the percentage of germinated seeds evaluated after 11 days.
# Barley seeds [1] = test: as above; settings: 0.35 g sprayed (benzyl alcohol pure, 700 L/Ha; glyphosate diluted at 0.5%)
# Method: as §6, §7, §8, §9, §10
# Rapeseed seeds = test: as above; settings: 0.35 g sprayed (benzyl alcohol pure, 700 L/Ha; glyphosate diluted at 0.5%)
# Method: as §6, §7, §8, §9, §10
# Wheat seeds = test: as above; settings: 0.35 g sprayed (benzyl alcohol pure, 700 L/Ha; glyphosate diluted at 0.5%)
# Method: as §6, §7, §8, §9, §10
# Maize seeds = test: as above; settings: 0.35 g sprayed (benzyl alcohol pure, 700 L/Ha; glyphosate diluted at 0.5%)
# Method: as §6, §7, §8, §9, §10
# Barley seeds [2] = test: Pre-emergence herbicide activity: germination of seeds sown at different depths
# Method: (§11) The assays were carried out on potted plants.
# Pure benzyl alcohol was used (PanReac AppliChem—ITW Reagents). The application of the product is carried out with a trigger spray bottle which makes it possible to spray 1 g of product per spraying as microdroplets.
# Barley seeds (50 seeds per condition) are sown in potting soil at different depths (1, 2 and 3 cm). Then, 100% benzyl alcohol is sprayed on the earth (above the seeds) at different concentrations (10, 25, 50, 100, 200, 300 L/Ha).
# The state of germination is observed at 0 and 11 days. The percentage of germination is the percentage of germinated seeds evaluated after 11 days.
# The percentage of seeds germinated under each of the conditions is determined and if it is below 70%, pre-emergence use is not recommended.
# Horned pansy = test: Systemic action through contact with the underground parts (saucer, capillary uptake); settings: potted, saucer containing 40 g pure benzyl alcohol, uptake via roots
# Method: as §11
# Pure benzyl alcohol was used (PanReac AppliChem—ITW Reagents).
# Two potted plants (Horned pansy) were each placed in a saucer containing respectively 40 g pure benzyl alcohol or 40 g water (control). By capillary action, the liquids contained in the saucer are absorbed by the earth and come into contact with the roots.
# The systemic effectiveness time, the collapsing of the plant, the colour intensity and the diameter of the plant were measured as indicated in Examples 1 and 2.
smiles,measurement,setting,value
OCc1ccccc1 [benzyl alcohol],Quantity of benzyl alcohol (sprinkling) that prevents sprouting,Bindweed; preventative soil sprinkling,110 L/Ha
same,Plants sprouted despite the preventative treatment,Bindweed; 50 L/ha pure benzyl alcohol,yes
same,Plants sprouted despite the preventative treatment,Bindweed; 70 L/Ha pure benzyl alcohol,yes
same,Plants sprouted despite the preventative treatment,Bindweed; 110 L/Ha pure benzyl alcohol,no
same,Plants sprouted despite the preventative treatment,Bindweed; 120 L/Ha pure benzyl alcohol,no
same,Plants sprouted despite the preventative treatment,Bindweed; 130 L/Ha pure benzyl alcohol,no
same,Plants sprouted despite the preventative treatment,Bindweed; 150 L/Ha pure benzyl alcohol,no
same,Quantity of benzyl alcohol (sprinkling) that prevents sprouting,Grass; preventative soil sprinkling,120 L/Ha
same,Plants sprouted despite the preventative treatment,Grass; 50 L/ha pure benzyl alcohol,yes
same,Plants sprouted despite the preventative treatment,Grass; 70 L/Ha pure benzyl alcohol,yes
same,Plants sprouted despite the preventative treatment,Grass; 110 L/Ha pure benzyl alcohol,yes
same,Plants sprouted despite the preventative treatment,Grass; 120 L/Ha pure benzyl alcohol,no
same,Plants sprouted despite the preventative treatment,Grass; 130 L/Ha pure benzyl alcohol,no
same,Plants sprouted despite the preventative treatment,Grass; 150 L/Ha pure benzyl alcohol,no
same,Quantity of benzyl alcohol (sprinkling) that prevents sprouting,Couch grass; preventative soil sprinkling,130 L/Ha
same,Plants sprouted despite the preventative treatment,Couch grass; 50 L/ha pure benzyl alcohol,yes
same,Plants sprouted despite the preventative treatment,Couch grass; 70 L/Ha pure benzyl alcohol,yes
same,Plants sprouted despite the preventative treatment,Couch grass; 110 L/Ha pure benzyl alcohol,yes
same,Plants sprouted despite the preventative treatment,Couch grass; 120 L/Ha pure benzyl alcohol,yes
same,Plants sprouted despite the preventative treatment,Couch grass; 130 L/Ha pure benzyl alcohol,no
same,Plants sprouted despite the preventative treatment,Couch grass; 150 L/Ha pure benzyl alcohol,no
same,Quantity of benzyl alcohol (sprinkling) that prevents sprouting,Thistle; preventative soil sprinkling,110 L/Ha
same,Plants sprouted despite the preventative treatment,Thistle; 50 L/ha pure benzyl alcohol,yes
same,Plants sprouted despite the preventative treatment,Thistle; 70 L/Ha pure benzyl alcohol,yes
same,Plants sprouted despite the preventative treatment,Thistle; 110 L/Ha pure benzyl alcohol,no
same,Plants sprouted despite the preventative treatment,Thistle; 120 L/Ha pure benzyl alcohol,no
same,Plants sprouted despite the preventative treatment,Thistle; 130 L/Ha pure benzyl alcohol,no
same,Plants sprouted despite the preventative treatment,Thistle; 150 L/Ha pure benzyl alcohol,no
same,Collapsing (score and time): time to pass from score 5 (T0) to score 1,Clover,1 to 48 h
same,Colour intensity (score and time): time to pass from score 5 (T0) to score 1,Clover,1 to 24 h
same,Diameter (score and time): time to pass from score 5 (T0) to score 1,Clover,1 to 48 h
same,Collapsing (score and time): time to pass from score 5 (T0) to score 1,Dandelion,1 to 48 h
same,Colour intensity (score and time): time to pass from score 5 (T0) to score 1,Dandelion,1 to 24 h
same,Diameter (score and time): time to pass from score 5 (T0) to score 1,Dandelion,1 to 48 h
same,Percentage of germination at 11 days,Soybean seeds,0%
same,Percentage of germination at 11 days,Barley seeds [1],0%
same,Percentage of germination at 11 days,Rapeseed seeds,0%
same,Percentage of germination at 11 days,Wheat seeds,0%
same,Percentage of germination at 11 days,Maize seeds,0%
same,Pre-emergence use prescribed (germination of sown seeds at 11 days not below 70%),"Barley seeds [2]; seeding depth 1 cm, 50 L/Ha benzyl alcohol sprayed on the earth",yes (pre-emergence use is prescribed)
same,Pre-emergence use prescribed (germination of sown seeds at 11 days not below 70%),"Barley seeds [2]; seeding depth 1 cm, 100 L/Ha benzyl alcohol sprayed on the earth",no (pre-emergence use is not recommended)
same,Pre-emergence use prescribed (germination of sown seeds at 11 days not below 70%),"Barley seeds [2]; seeding depth 1 cm, less than 50 L/Ha benzyl alcohol sprayed on the earth",yes (pre-emergence use is prescribed)
same,Pre-emergence use prescribed (germination of sown seeds at 11 days not below 70%),"Barley seeds [2]; seeding depth 2 cm, 50 L/Ha benzyl alcohol sprayed on the earth",yes (pre-emergence use is prescribed)
same,Pre-emergence use prescribed (germination of sown seeds at 11 days not below 70%),"Barley seeds [2]; seeding depth 2 cm, 100 L/Ha benzyl alcohol sprayed on the earth",yes (pre-emergence use is prescribed)
same,Pre-emergence use prescribed (germination of sown seeds at 11 days not below 70%),"Barley seeds [2]; seeding depth 2 cm, less than 50 L/Ha benzyl alcohol sprayed on the earth",yes (pre-emergence use is prescribed)
same,Pre-emergence use prescribed (germination of sown seeds at 11 days not below 70%),"Barley seeds [2]; seeding depth 3 cm, 50 L/Ha benzyl alcohol sprayed on the earth",yes (pre-emergence use is prescribed)
same,Pre-emergence use prescribed (germination of sown seeds at 11 days not below 70%),"Barley seeds [2]; seeding depth 3 cm, 100 L/Ha benzyl alcohol sprayed on the earth",yes (pre-emergence use is prescribed)
same,Pre-emergence use prescribed (germination of sown seeds at 11 days not below 70%),"Barley seeds [2]; seeding depth 3 cm, less than 50 L/Ha benzyl alcohol sprayed on the earth",yes (pre-emergence use is prescribed)
same,Collapsing: time to pass from a score of 5 to a score of 1,Horned pansy,72 h
same,Colour intensity: time to pass from a score of 5 to a score of 1,Horned pansy,48 h
same,Diameter of the plant: time to pass from a score of 5 to a score of 1,Horned pansy,96 h
same,Systemic effectiveness time: the whole plant is affected,Horned pansy,48 h
